According to US11401271B2, “Fused heterocyclic compound, pyrazole-ring-containing fused heterocyclic compound, agricultural composition containing thereof, and method of using the composition” (SOUTH CHINA AGRICULTURAL UNIVERSITY, priority 2017, dated 2022):
Where two headings read alike, the source gives them in different places.

Key:
Experiment in all cases: whole plant or invertebrate
Type in all cases: in vivo
[1] = system: Plutella xylostella; details: for mortality at 500 ppm: Plutella xylostella, read-out: Plutella xylostella Mortality (%) 500 ppm
Outline: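 Cabbage leaf discs dipped 5 s in compound at 500 ppm (0.05% Tween-80 aqueous), air-dried, fed to about 35 2nd-instar larvae at 28° C., triplicate. Dead larvae counted after 24 h; mortality (%) corrected against Tween-80 control.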

[2] = system: Solenopsis invicta; details: water test tube poison-feeding; for mortality at 100 ppm: Solenopsis invicta
Outline: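 Fire ants fed compound by water test-tube poison-feeding at 100 ppm in aqueous 0.05% Tween-80/5% honey (from 10 g/L DMSO stock), kept at 25 °C. Live and dead ants counted at 24 and 72 h; mortality (%) calculated relative to live ants in the untreated control.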

[3] = system: Spodoptera exigua; details: for mortality at 500 ppm: Spodoptera exigua, read-out: Spodoptera exigua Mortality (%) 500 ppm
Outline: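 Cabbage leaf discs dipped 5 s in 500 ppm compound (0.05% Tween-80 aqueous), air-dried, fed to about 35 2nd-instar larvae at 28° C, three replicates. Deaths counted at 24 h; mortality corrected against Tween-80 control.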

[4] = system: Aphis craccivora; details: for Aphis craccivora Mortality (%): immersion 5 seconds, counted after 24 hours; for mortality at 500 ppm: Aphis craccivora, read-out: Aphis craccivora Mortality (%) 500 ppm
Outline: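 Wingless adults feeding on bean sprouts were dipped with the sprouts for 5 s in 500 ppm compound in aqueous 0.05% Tween-80, air-dried, then held at 23° C. Dead aphids counted after 24 h, triplicate, with 0.05% Tween-80 as control. Mortality (%) = (control live − treated live)/control live × 100.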

[5] = 500 ppm, 2nd-instar larvae, leaf immersion feeding
[6] = 500 ppm, 2nd-instar larvae, leaf immersion feeding, 24 hours
[7] = 500 ppm, wingless adults, impregnation method, 24 hours
[8] = 24 h, read-out: Solenopsis invicta Mortality (%) 100 ppm 24 h, 100 ppm, 24 h
[9] = 72 h, read-out: Solenopsis invicta Mortality (%) 100 ppm 72 h, 100 ppm, 72 h

Row | Structure (SMILES) | Plutella xylostella Mortality (%) [1, 5] | Solenopsis invicta Mortality (%) 24 h ([2]; 100 ppm, 24 h) | Solenopsis invicta Mortality (%) 72 h ([2]; 100 ppm, 72 h) | Spodoptera exigua Mortality (%) [3, 5] | Aphis craccivora Mortality (%) ([4]; 500 ppm, wingless adults) | mortality at 500 ppm [1] | mortality at 100 ppm [2, 8] | mortality at 100 ppm [2, 9] | mortality at 500 ppm ([3]; 24 h) | mortality at 500 ppm ([4]; 24 h) | other results
1 | N#Cc1nn2c(c1[S+]([O-])C(F)(F)F)NC(Cl)(CBr)c1cc(C(F)(F)F)cnc1-2 (centres unmarked) [a-45] |  |  |  |  |  |  |  |  |  |  | Plutella xylostella Mortality (%) 500 ppm [1, 5]: 100%; Solenopsis invicta Mortality (%) 100 ppm 24 h ([2]; 100 ppm, 24 h): 20%; Solenopsis invicta Mortality (%) 100 ppm 72 h ([2]; 100 ppm, 72 h): 90%; Spodoptera exigua Mortality (%) 500 ppm [3, 6]: 91%; Aphis craccivora Mortality (%) 500 ppm [4, 7]: 100%
2 | CCOC(=O)C1(CC(=O)OC)Nc2c([S+]([O-])C(F)(F)F)c(C#N)nn2-c2c(C(F)(F)F)ccc(Cl)c21 (centres unmarked) [e-6] | 100% | 34% | 100% | 100% | 100% |  |  |  |  |  | 
3 | N#Cc1nn2c(c1[S+]([O-])C(F)(F)F)NC(Cl)c1cc(C(F)(F)F)cnc1-2 (centres unmarked) [a-80] |  |  |  |  |  |  |  |  |  |  | Plutella xylostella Mortality (%) 500 ppm [1, 5]: 91%; Solenopsis invicta Mortality (%) 100 ppm 24 h ([2]; 100 ppm, 24 h): 10%; Solenopsis invicta Mortality (%) 100 ppm 72 h ([2]; 100 ppm, 72 h): 100%; Spodoptera exigua Mortality (%) 500 ppm [3, 6]: 85%; Aphis craccivora Mortality (%) 500 ppm [4, 7]: 100%
4 | COC(=O)Nc1cc2n(n1)-c1cnccc1C(F)(CC(F)(F)F)N2 (centres unmarked) [Compound A40] |  |  |  |  |  |  |  |  |  |  | mortality at 500 ppm [1, 5]: 96%; mortality at 100 ppm ([2]; 24 h, 100 ppm, 24 h, read-out: Solenopsis invicta Mortality (%) 100 ppm 24 h): 20%; mortality at 100 ppm ([2]; 72 h, 100 ppm, 72 h, read-out: Solenopsis invicta Mortality (%) 100 ppm 72 h): 97%; mortality at 500 ppm [3, 6]: 100%; mortality at 500 ppm [4, 7]: 100%
5 | N#Cc1nn2c(c1[S+]([O-])C(F)(F)F)NC(Cl)(CC(F)(F)F)c1c(Cl)cncc1-2 (centres unmarked) [b-48] | 100% | 15% | 90% | 89% | 100% |  |  |  |  |  | 
6 | N#Cc1nn2c(c1[S+]([O-])C(F)(F)F)NC(C#N)(CC(F)(F)F)c1cc(C(F)(F)F)cc(Cl)c1-2 (stereo not drawn) [d-65] | 100% | 24% | 90% | 100% | 100% |  |  |  |  |  | 
7 | C=CC1(CCl)Nc2c([S+]([O-])CC)c(C#N)nn2-c2c(Cl)cc(C(F)(F)F)cc21 (centres unmarked) [Compound C17] |  |  |  |  |  | 88% | 15% | 68% | 89% | 100% | 
8 | CNC(=O)C1(CC#N)Nc2c([S+]([O-])C(F)(F)F)c(C#N)nn2-c2c(Cl)cc(C(F)(F)F)cc21 (centres unmarked) [Compound C33] |  |  |  |  |  | 100% | 36% | 100% | 100% | 100% | 
9 | COC(=O)C1(CC(=O)OCC(F)(F)F)Nc2c([S+]([O-])C(F)(F)F)c(C#N)nn2-c2cc(C(F)(F)F)cc(Cl)c21 (centres unmarked) [c-19] | 100% | 20% | 100% | 100% | 100% |  |  |  |  |  | 
10 | COC(=O)CC1(C(=O)OC)Nc2c([S+]([O-])C(F)(F)F)c(C#N)nn2-c2c1ccc(Cl)c2C(F)(F)F (centres unmarked) [e-13] | 100% | 20% | 100% | 100% | 100% |  |  |  |  |  | 
11 | CC(=O)CC1(C(C)=O)Nc2c([S+]([O-])C(F)(F)F)c(C#N)nn2-c2c(Cl)cc(C(F)(F)F)cc21 (stereo not drawn) [d-46] | 95% | 14% | 90% | 90% | 100% |  |  |  |  |  | 
12 | COC(=O)CC1(C(=O)OC)Nc2c(Cl)c(C#N)nn2-c2ncc(C(F)(F)F)cc21 (centres unmarked) [a-133] |  |  |  |  |  |  |  |  |  |  | Plutella xylostella Mortality (%) 500 ppm [1, 5]: 100%; Solenopsis invicta Mortality (%) 100 ppm 24 h ([2]; 100 ppm, 24 h): 24%; Solenopsis invicta Mortality (%) 100 ppm 72 h ([2]; 100 ppm, 72 h): 100%; Spodoptera exigua Mortality (%) 500 ppm [3, 6]: 100%; Aphis craccivora Mortality (%) 500 ppm [4, 7]: 100%
13 | CS(=O)(=O)Nc1cc2n(n1)-c1cnccc1C(F)(CC(F)(F)F)N2 (centres unmarked) [Compound A42] |  |  |  |  |  | 100% | 44% | 100% | 100% | 100% | 
14 | C=CC1(C(F)(F)F)Nc2c(-c3cc(C)oc3C)c(C#N)nn2-c2c(Cl)cc(C(F)(F)F)cc21 (centres unmarked) [Compound C12] |  |  |  |  |  | 100% | 18% | 95% | 91% | 100% | 
15 | CC1(C)Nc2c(Br)c(C#N)nn2-c2ccccc21 [Compound A2] |  |  |  |  |  | 97% | 19% | 93% | 100% | 100% | 
16 | COC(=O)CC1(C(=O)OC)Nc2c([S+]([O-])C(F)(F)F)c(CN)nn2-c2c(Cl)cc(C(F)(F)F)cc21 (stereo not drawn) [d-9] | 82% | 21% | 77% | 79% | 96% |  |  |  |  |  | 
17 | O=C(C1Nc2c([S+]([O-])C(F)(F)F)c(C(F)(F)F)nn2-c2cncc(Cl)c21)C(F)(F)F (centres unmarked) [b-94] | 100% | 20% | 100% | 90% | 100% |  |  |  |  |  | 
18 | COC(=O)C1(CC(F)(F)F)Nc2c([S+]([O-])C(F)(F)F)c(C#N)nn2-c2c(Cl)cc(C(F)(F)F)cc21 (stereo not drawn) [d-35] | 90% | 30% | 100% | 89% | 100% |  |  |  |  |  | 
19 | N#Cc1nn2c(c1[S+]([O-])C(F)(F)F)NC(C(O)CO)(C(F)(F)F)c1cc(C(F)(F)F)cc(Cl)c1-2 (centres unmarked) [Compound C57] |  |  |  |  |  | 78% | 20% | 89% | 76% | 80% | 
20 | N#Cc1nn2c(c1[S+]([O-])C(F)(F)F)NC(Cc1ccccc1)(C(=O)C(F)(F)F)c1c(Cl)cc(C(F)(F)F)cc1-2 (centres unmarked) [c-36] | 92% | 21% | 100% | 90% | 95% |  |  |  |  |  | 
21 | CC(=O)Nc1c(C#N)nn2c1NC(C)(C)c1ccccc1-2 [Compound A17] |  |  |  |  |  | 100% | 34% | 100% | 100% | 100% | 
22 | CC(=O)Nc1cc2n(n1)-c1cnccc1C(F)(CC(F)(F)F)N2 (centres unmarked) [Compound A39] |  |  |  |  |  | 100% | 24% | 100% | 100% | 100% | 
23 | COC(=O)CC1(C(=O)OC)Nc2c([S+](C)[O-])c(C#N)nn2-c2c(Cl)cc(C(F)(F)F)cc21 (stereo not drawn) [d-13] | 82% | 26% | 89% | 81% | 99% |  |  |  |  |  | 
24 | COC(=O)C1(CC#N)Nc2c([S+](C)[O-])c(C(C)=O)nn2-c2c(Cl)cc(C(F)(F)F)cc21 (centres unmarked) [Compound C44] |  |  |  |  |  | 90% | 36% | 90% | 100% | 100% | 
25 | CC=CC1Nc2c([S+]([O-])C(F)(F)F)c(C#N)nn2-c2cncc(Cl)c21 (centres unmarked) [b-86] | 96% | 20% | 97% | 89% | 100% |  |  |  |  |  | 
26 | N#Cc1nn2c(c1[S+]([O-])C(F)(F)F)NC(Br)(CC(=O)C(F)(F)F)c1cc(C(F)(F)F)cc(Cl)c1-2 (stereo not drawn) [d-63] | 100% | 20% | 90% | 95% | 100% |  |  |  |  |  | 
27 | CC(=O)C1(CBr)Nc2c([S+]([O-])C(F)(F)F)c(C#N)nn2-c2cncc(Cl)c21 (centres unmarked) [b-34] | 90% | 10% | 100% | 87% | 100% |  |  |  |  |  | 
28 | CC[S+]([O-])c1c(C#N)nn2c1NC(CC(=O)OC)(C(=O)OC)c1cc(C(F)(F)F)cc(Cl)c1-2 (stereo not drawn) [d-14] | 90% | 24% | 100% | 89% | 100% |  |  |  |  |  | 
